Reference: patent publication US20130011333A1, “Methods and Compositions for Nanoparticle-Mediated Cancer Cell-Targeted Delivery” (Board of Regents, The University of Texas System, priority 2010, published 2013)

Tests used:
MDA-MB-231 cells [1] = assay: Colony formation assay; format: cell-based, human; settings: MDA-MB-231 cells expressing high level of mutant p53, transfected vector
MCF-10A cells [2] = assay: Western analysis of p53 pathway; format: cell-based, human; settings: 4Gy, 6 h post-IR
Method: (§1) A. Cells as in FIG. 6 were subject to Western analysis using the indicated antibodies. P53/p73OD expressing MDA-MB-231 or MCF-10A cells were either mock or irradiated with 4Gy. The cells were either harvested at 6 h post-IR for Western analysis (B) or at 24 h for FACS analysis (C). The results are mean±SE from three independent experiments.
(§2) To understand potential mechanisms underlying the differential sensitivity of cancer cells and non-transformed cells to p53/p73OD expression, p53 activity was examined further. […] The result is in line with the notion that cancer cells, but not normal cells, harbor strong intrinsic p53-activating signals. The low activity of p53/p73OD in MCF-10A cells led to the question of whether the chimera could be activated by exogenous stimuli such as radiation.

p73 = target: T1, p73 (Homo sapiens, UniProt O15350); settings: reference [28]; cited from earlier work
T1 sequence (O15350 1-499 isoform O15350-2): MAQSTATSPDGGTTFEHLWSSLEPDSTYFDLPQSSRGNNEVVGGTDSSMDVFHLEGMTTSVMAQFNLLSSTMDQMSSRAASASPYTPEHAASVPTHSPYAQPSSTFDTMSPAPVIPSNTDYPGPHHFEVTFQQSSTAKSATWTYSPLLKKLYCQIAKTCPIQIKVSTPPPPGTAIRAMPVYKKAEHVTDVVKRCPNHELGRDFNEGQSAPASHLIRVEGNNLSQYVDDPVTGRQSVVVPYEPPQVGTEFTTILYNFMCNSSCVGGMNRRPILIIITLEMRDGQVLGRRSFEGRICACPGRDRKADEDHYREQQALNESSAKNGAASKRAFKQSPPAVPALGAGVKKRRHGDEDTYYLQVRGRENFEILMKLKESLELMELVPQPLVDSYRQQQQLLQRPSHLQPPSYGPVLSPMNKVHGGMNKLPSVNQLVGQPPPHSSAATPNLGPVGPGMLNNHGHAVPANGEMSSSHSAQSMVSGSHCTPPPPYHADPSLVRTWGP

p53 = p53 (Homo sapiens, UniProt P04637); settings: reference [28]; cited from earlier work
p53, sequence (P04637 whole entry): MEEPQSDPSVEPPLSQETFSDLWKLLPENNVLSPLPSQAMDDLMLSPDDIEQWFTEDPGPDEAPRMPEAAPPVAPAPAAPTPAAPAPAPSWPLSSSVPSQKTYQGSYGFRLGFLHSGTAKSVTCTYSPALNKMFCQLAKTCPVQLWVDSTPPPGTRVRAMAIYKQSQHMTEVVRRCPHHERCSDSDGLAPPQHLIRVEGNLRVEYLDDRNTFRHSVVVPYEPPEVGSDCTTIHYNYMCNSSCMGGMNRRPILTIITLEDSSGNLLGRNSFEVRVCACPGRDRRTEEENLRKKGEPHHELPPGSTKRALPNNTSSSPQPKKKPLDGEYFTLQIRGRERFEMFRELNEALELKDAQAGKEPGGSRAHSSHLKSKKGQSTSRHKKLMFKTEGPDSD

[3] = system: MDA-MB-231 cells stably expressing Pg13-GFP; assay: Pg13-GFP reporter of p53 activation; format: cell-based, human; settings: delivered with GLU-PEG-PEI, 0.2 μg DNA/60-mm dish, 24 h
Method: The cells were fixed 24 h later using 2% formalin and stained with DAPI dye. The top panels show the GFP expression. The bottom panels show cell nuclei detected by DAPI staining.
To facilitate the detection of p53 activation in situ, a Pg13-GFP system was developed in which 13 repeats of a canonical p53 responsive element were cloned to drive the expression of GFP protein. An absolute dependency of the GFP expression on p53 was verified with p53-null H1299 cells. […] The cells were fixed 24 h later.

MDA-MB-231 cells [4] = assay: Western analysis of p53 pathway; format: cell-based, human
Method: After selection with puromycin, the cells were subjected to colony formation assay. The data are means±SE from three separate experiments (A). Western analysis was performed with cells that were harvested at 48 h pos-selection and probed using the indicated antibodies (B).
as §1
The present invention utilizes a p53/p73 chimera to circumvent this OD-mediated inactivation by mutant p53. A series of p53/p73 chimeric proteins were generated by swapping corresponding domains of p53 and p73 [28]. […] A crystal structure study has confirmed this observation. […] This is of particular significance considering the dominant-negative and gain-of-function activities of mutant p53 that are primarily responsible for the oncogenic function.
as §2

MCF-10A cells [5] = assay: FACS (flow cytometry) analysis after irradiation; format: cell-based, human; settings: MCF-10A cells expressing p53/p73OD, 4Gy, 24 h
Method: as §1, §2

MDA-MB-231 cells [6] = assay: FACS (flow cytometry) analysis after irradiation; format: cell-based, human; settings: MDA-MB-231 cells expressing p53/p73OD, 4Gy, 24 h
Method: as §1, §2

MCF-10A cells [7] = assay: Colony formation assay; format: cell-based, human; settings: expression level that markedly inhibits MDA-MB-231 growth
Method: FIG. 6. MCF-10A cells are less sensitive to a moderate level of p53/p73OD expression. MCF-10A cells with MDA-MB-231 cells as controls were transfected with the indicated vectors (0.5 μg) and subjected to colony formation assay as in FIG. 5. Western blot was performed in parallel to determine the level of p53/p73OD expression.
As a result, the response of normal cells to a moderate level of p53/p73OD expression is likely to differ from that of cancer cells. This was tested by comparing MDA-MB-231 cells and MCF-10A cells (a non-transformed human breast epithelial cell line), using a similar colony formation assay.

p53/p73OD: human p53 protein in which amino acids 318 to 364 are replaced with amino acids 346-390 of p73 (the oligomerization domain)
cell growth (colony formation) (MDA-MB-231 cells [1]): effectively inhibited cell growth | phosphorylation after IR (MCF-10A cells [2]): markedly induced | association with p73 (p73): associates | binding to p53 (p53): does not bind | p53 transcription activity (GFP expression) [3]: increase of p53 transcription activity | PUMA, MDM2 and p21 expression (MDA-MB-231 cells [4]): robust induction | phosphorylation after IR (MDA-MB-231 cells [4]; 4Gy, 6 h post-IR): markedly induced | mutant p53 protein level (MDA-MB-231 cells [4]; Western, 48 h post-selection): significant decrease | phosphorylation (anti-Sp15p53 Western) (MDA-MB-231 cells [4]; no irradiation): phosphorylated | G1 cell cycle arrest after IR (MCF-10A cells [5]): significant G1 cell cycle arrest | G1 cell cycle arrest after IR (MDA-MB-231 cells [6]): little G1 cell cycle arrest | sub-G1, or apoptotic population after IR (MDA-MB-231 cells [6]): marked increase | cell growth (colony formation) (MCF-10A cells [7]): did not significantly impact the growth
